Laboratory results as given in the supplement of paper PMC10307832.

Columns and labels:
Experiment in all cases: relative viability (nuclei count vs DMSO), 5 days (fraction); higher = more cells survive
Shikonin + Crizotinib = compound: CC(C)=CC[C@@H](O)C1=CC(=O)c2c(O)ccc(O)c2C1=O [Shikonin] + C[C@@H](Oc1cc(-c2cnn(C3CCNCC3)c2)cnc1N)c1c(Cl)ccc(F)c1Cl [Crizotinib] (partner 1 µM)
In short: (§1)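 Relative viability is defined as nuclei in treated wells over nuclei in vehicle wells. Duplicate plates were run and medians reported. Lung cancer cell lines in 1536-well plates were dosed by pin tool one day after seeding, with one drug or with a fixed anchor-drug dose plus five library-drug doses (not always all listed) in √10 steps, and nuclei were counted after 5 days.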

Shikonin + Linsitinib = compound: CC(C)=CC[C@@H](O)C1=CC(=O)c2c(O)ccc(O)c2C1=O [Shikonin] + C[C@]1(O)C[C@@H](c2nc(-c3ccc4ccc(-c5ccccc5)nc4c3)c3c(N)nccn32)C1 [Linsitinib] (partner 1 µM)
In short: as §1

[1] = compound: CC(C)N(CCCNC(=O)Nc1ccc(C(C)(C)C)cc1)C[C@H]1O[C@@H](n2ccc3c(N)ncnc32)[C@H](O)[C@@H]1O + CC(=O)c1c(C)c2cnc(Nc3ccc(N4CCNCC4)cn3)nc2n(C2CCCC2)c1=O [Palbociclib] (partner 0.5 µM)
In short: as §1

[2] = compound: CC(C)N(CCCNC(=O)Nc1ccc(C(C)(C)C)cc1)C[C@H]1O[C@@H](n2ccc3c(N)ncnc32)[C@H](O)[C@@H]1O + Nc1ncn([C@H]2C[C@H](O)[C@@H](CO)O2)c(=O)n1 [Decitabine] (partner 2 µM)
In short: as §1

| Cell Line | relative viability (Shikonin + Crizotinib; first compound 0.01 µM) | relative viability (Shikonin + Crizotinib; first compound 0.1 µM) | relative viability (Shikonin + Crizotinib; first compound 0.3162 µM) | relative viability (Shikonin + Crizotinib; first compound 1 µM) | relative viability (Shikonin + Linsitinib; first compound 0.01 µM) | relative viability (Shikonin + Linsitinib; first compound 0.1 µM) | relative viability (Shikonin + Linsitinib; first compound 0.3162 µM) | relative viability (Shikonin + Linsitinib; first compound 1 µM) | relative viability ([1]; first compound 0.08 µM) | relative viability ([1]; first compound 0.253 µM) | relative viability ([1]; first compound 2.53 µM) | relative viability ([1]; first compound 8 µM) | relative viability ([2]; first compound 0.08 µM) | relative viability ([2]; first compound 0.253 µM) | relative viability ([2]; first compound 2.53 µM) | relative viability ([2]; first compound 8 µM) | relative viability ([2]; first compound 0.8 µM) | relative viability ([1]; first compound 0.8 µM) |
| --- | --- | --- | --- | --- | --- | --- | --- | --- | --- | --- | --- | --- | --- | --- | --- | --- | --- | --- |
| 201T | 1.01 | 1.08 | 1.04 | 1.08 | 1.01 | 1.04 | 1.08 | 1.03 | 0.338 | 0.352 | 0.328 | 0.357 | 0.841 | 0.889 | 0.876 | 0.844 | – | – |
| A549 | 0.748 | 0.932 | 0.872 | 0.705 | 0.59 | 0.485 | 0.728 | 0.637 | – | – | – | – | 0.278 | 0.292 | 0.215 | 0.189 | 0.291 | – |
| A-427 | 0.978 | 1.12 | 1.03 | 0.847 | 1.11 | 1.21 | 1.19 | 1.14 | 0.525 | 0.546 | 0.578 | 0.515 | 0.556 | 0.535 | 0.541 | 0.568 | 0.568 | 0.556 |
| ABC-1 | 1.72 | 1.15 | 1.13 | 0.531 | 0.968 | 0.754 | 0.689 | 0.647 | 0.665 | 0.868 | 0.763 | 0.655 | 1.03 | 1.23 | 1.15 | 1.32 | – | – |
| BEN | 0.952 | 0.974 | 0.975 | 0.998 | 1.07 | 0.962 | 1.12 | 1.07 | 0.446 | 0.509 | 0.503 | 0.445 | 0.602 | 0.596 | 0.717 | 0.678 | 0.739 | 0.453 |
| CAL-12T | 0.941 | 0.659 | 0.627 | 0.589 | 0.754 | 0.815 | 0.715 | 0.767 | 0.418 | 0.341 | 0.445 | 0.38 | – | – | – | – | – | 0.488 |
| COR-L23 | 0.735 | 0.786 | 0.601 | 0.689 | 0.99 | 0.865 | 0.917 | 0.797 | 0.302 | 0.296 | 0.34 | 0.304 | 0.46 | 0.33 | 0.48 | 0.456 | 0.467 | 0.265 |
| COR-L 105 | 1.06 | 0.721 | 0.763 | 0.692 | 1.1 | 0.971 | 0.845 | 0.655 | 0.402 | 0.397 | 0.434 | 0.378 | 0.631 | 0.67 | 0.638 | 0.694 | 0.736 | 0.414 |
| Calu-6 | 1.02 | 0.854 | 0.912 | 0.75 | 0.984 | 1.08 | 0.984 | 0.972 | – | – | – | – | – | – | – | – | – | – |
| ChaGo-K-1 | 1.07 | 1.19 | 1.11 | 1.21 | – | – | – | – | 0.887 | 0.96 | 0.928 | 0.95 | 0.468 | 0.545 | 0.522 | 0.505 | 0.494 | 0.959 |
| EBC-1 | 0.165 | 0.224 | 0.216 | 0.201 | 0.984 | 0.857 | 0.727 | 1.02 | – | – | – | – | – | – | – | – | – | – |
| EKVX | 1.05 | 1.2 | 0.996 | 1.07 | 1.04 | 0.962 | 1.29 | 1.09 | 0.418 | 0.346 | 0.433 | 0.371 | 0.342 | 0.339 | 0.36 | 0.351 | 0.327 | 0.41 |
| EMC-BAC-2 | 0.771 | 0.715 | 0.815 | 0.866 | 0.8 | 0.836 | 0.839 | 0.855 | 0.507 | 0.499 | 0.502 | 0.485 | 0.939 | 1.02 | 1.09 | 0.96 | 1.07 | 0.512 |
| EPLC-272H | 1.03 | 0.901 | 0.953 | 0.865 | 1.18 | 1.32 | 1.2 | 1.17 | 0.365 | 0.342 | 0.36 | 0.398 | 0.366 | 0.381 | 0.413 | 0.39 | 0.368 | 0.366 |
| H3255 | 0.945 | 1 | 0.958 | 0.915 | 0.999 | 1.05 | 1.06 | 1.08 | 0.328 | 0.33 | 0.299 | 0.316 | 0.613 | 0.645 | 0.626 | 0.511 | 0.491 | 0.308 |
| HARA | 1.18 | 1.19 | 1.11 | 1.21 | 1.1 | 0.925 | 1.01 | 0.925 | 0.249 | 0.223 | 0.208 | 0.26 | 0.556 | 0.545 | 0.457 | 0.495 | 0.62 | 0.311 |
| HCC-15 | 0.89 | 0.916 | 0.913 | 0.928 | 0.99 | 0.906 | 0.874 | 0.935 | 0.759 | 0.709 | 0.712 | 0.724 | 0.655 | 0.592 | 0.646 | 0.544 | 0.65 | 0.802 |
